# Values joined by “and” are separate entries in the source; they are usually repeats but may differ in a detail not shown here. Equal values may be shown once. Read-outs that look alike come from different tables or passages of the source.
# Tests used:
# OXA-51 = OXA-51 (Acinetobacter baumannii, UniProt Q5QT35); experiment: In vitro SBL inhibition assay (nitrocefin hydrolysis), IC50; format: biochemical, A. baumannii; conditions: 10 min preincubation, 30°C, read-out: Enzyme IC50
# Description: (§1) Nitrocefin (Sigma-Aldrich, St Louis, MO, USA), a chromogenic cephalosporin antibiotic (λ, 482 nm; εM, 15,000 M^−1.cm^−1), was used as a reporter substrate at 100 µM for KPC-2, OXA-23, and OXA-48, at 200 µM for OXA-24 and OXA-51, and at 50 µM for OXA-58. Enzymes were preincubated in the presence of varying concentrations of each compound (0.006 to 3000 nM, diluted twofold in dimethyl sulfoxide (DMSO) for KPC-2, OXA-23, and OXA-48 assays and 0.51 to 10,000 nM diluted threefold in DMSO for OXA-24, OXA-51, and OXA-58) for 10 min at 30°C. Nitrocefin was then added and its hydrolysis by the uninhibited enzyme fraction was followed at an absorbance wavelength of 482 nm for 10 min at 30°C using Envision UV fluorescence plate reader (Perkin Elmer, Waltham, MA, USA). Hydrolysis rate data were used to determine inhibitory activities, expressed in IC50 values [corresponding to the compound concentration (µM) required to inhibit 50% of enzymatic reaction].
# OXA-58 = OXA-58 (Acinetobacter baumannii, UniProt Q2TR58); experiment: as above; format: biochemical, A. baumannii
# Chain of OXA-58 (Q2TR58 19-280): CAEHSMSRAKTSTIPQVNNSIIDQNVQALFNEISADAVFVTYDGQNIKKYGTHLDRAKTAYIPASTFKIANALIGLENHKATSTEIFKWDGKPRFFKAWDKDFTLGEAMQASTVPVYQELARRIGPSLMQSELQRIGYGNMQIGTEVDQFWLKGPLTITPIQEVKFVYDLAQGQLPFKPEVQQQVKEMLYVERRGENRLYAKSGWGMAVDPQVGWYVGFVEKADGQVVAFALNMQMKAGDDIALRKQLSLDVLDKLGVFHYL
# Description: as §1
# OXA-23 = OXA-23 (Acinetobacter baumannii, UniProt Q9L4P2); experiment: as above; format: biochemical; conditions: 10 min preincubation, 30°C, read-out: Enzyme IC50
# Chain of OXA-23 (Q9L4P2 18-273): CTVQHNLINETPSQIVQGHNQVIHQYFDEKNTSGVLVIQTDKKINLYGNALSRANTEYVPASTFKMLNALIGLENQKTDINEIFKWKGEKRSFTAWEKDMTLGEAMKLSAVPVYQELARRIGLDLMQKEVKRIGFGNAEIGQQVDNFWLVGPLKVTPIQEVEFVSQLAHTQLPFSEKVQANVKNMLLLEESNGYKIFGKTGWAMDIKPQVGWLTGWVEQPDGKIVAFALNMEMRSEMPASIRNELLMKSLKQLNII
# Description: as §1
# OXA-24/40 = OXA-24/40 (Acinetobacter baumannii, UniProt Q8RLA6); experiment: as above; format: biochemical; conditions: 10 min preincubation, 30°C, read-out: Enzyme IC50
# Chain of OXA-24/40 (Q8RLA6 22-275): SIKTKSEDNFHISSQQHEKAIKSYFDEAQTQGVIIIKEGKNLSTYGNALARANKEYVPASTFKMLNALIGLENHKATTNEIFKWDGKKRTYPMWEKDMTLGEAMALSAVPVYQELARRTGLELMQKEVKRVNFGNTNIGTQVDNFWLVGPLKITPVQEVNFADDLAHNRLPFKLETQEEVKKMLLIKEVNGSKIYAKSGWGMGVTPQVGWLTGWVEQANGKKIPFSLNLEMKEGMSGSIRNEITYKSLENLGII
# Description: as §1
# KPC-2 = KPC-2 (Klebsiella pneumoniae, UniProt Q9F663); experiment: as above; format: biochemical
# Chain of KPC-2 (Q9F663 25-293 limits assumed): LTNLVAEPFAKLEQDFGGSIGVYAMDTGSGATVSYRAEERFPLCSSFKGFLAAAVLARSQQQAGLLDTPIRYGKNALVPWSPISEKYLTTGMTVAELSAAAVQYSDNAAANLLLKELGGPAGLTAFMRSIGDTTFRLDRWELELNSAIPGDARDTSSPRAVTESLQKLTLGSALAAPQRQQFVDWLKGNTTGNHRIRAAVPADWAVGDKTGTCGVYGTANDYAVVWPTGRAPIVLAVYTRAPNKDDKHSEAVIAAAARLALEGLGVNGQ
# Description: as §1
# OXA-48 = OXA-48 (Klebsiella pneumoniae, UniProt Q6XEC0); experiment: as above; format: biochemical; conditions: 10 min preincubation, 30°C, read-out: Enzyme IC50
# Chain of OXA-48 (Q6XEC0 23-265, looked up, species assumed): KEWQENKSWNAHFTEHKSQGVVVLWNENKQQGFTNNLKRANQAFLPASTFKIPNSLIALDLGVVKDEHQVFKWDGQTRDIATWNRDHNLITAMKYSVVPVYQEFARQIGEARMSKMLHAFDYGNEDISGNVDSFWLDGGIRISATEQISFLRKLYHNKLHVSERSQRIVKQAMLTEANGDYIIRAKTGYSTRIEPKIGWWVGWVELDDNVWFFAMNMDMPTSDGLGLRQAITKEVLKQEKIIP
# Description: as §1
# [1] = system: A. baumannii clinical isolates; experiment: Broth microdilution MIC, A. baumannii clinical isolates; format: cell-based, Acinetobacter baumannii; conditions: for CLSI % Res: CLSI BP, for MEM-ANT3310 % at ≥16 µg/mL; for EUCAST % Res / EUCAST % Sus: EUCAST BP; for Number of isolates inhibited at MIC of >16 µg/mL: footnote c
# Description: (§2) All isolates were randomly selected from the frozen culture collection of IHMA collected in 2018 and 2019. Matrix-assisted laser desorption ionization-time of flight mass spectrometry was used to confirm the identity of the organisms tested (Bruker Daltonics, Bremen, Germany).
# (§3) MICs for all antimicrobial agents were determined at IHMA by broth microdilution in accordance with both CLSI ([17]) and EUCAST ([18]) guidelines. Microtiter panels were prepared by IHMA and stored at −70°C in cation-adjusted Mueller Hinton broth (CAMHB) (Becton Dickinson). Iron-depleted CAMHB was used to test cefiderocol. Panels containing ANT3310 were prepared fresh on the day of testing. […] MIC values corresponded to the first well with no visible growth. Quality control testing was performed on each day of testing with E. coli ATCC 25922, P. aeruginosa ATCC 27853, K. pneumoniae ATCC 700603 and BAA 1705, and A. baumannii NCTC 13304. MICs were interpreted using 2023 CLSI ([17]) and EUCAST ([18]) BPs.
# [2] = system: P. aeruginosa clinical isolates; experiment: Broth microdilution MIC, P. aeruginosa clinical isolates; format: cell-based, Pseudomonas aeruginosa
# Description: as §2, §3
# [3] = system: Enterobacterales, P. aeruginosa and A. baumannii clinical isolates; experiment: Intrinsic antibacterial activity of ANT3310 alone, all 1,207 isolates; format: cell-based
# Description: as §2, §3
# [4] = system: OXA- or KPC-Enterobacterales clinical isolates; experiment: Broth microdilution MIC, OXA- or KPC-positive Enterobacterales; format: cell-based
# Description: as §2, §3
# [5] = system: KPC-producing Enterobacterales (KPC-CRE); experiment: organism not typed; format: cell-based; conditions: 180 KPC-producing Enterobacterales
# Description: as §2, §3
# [6] = system: OXA-producing Enterobacterales (OXA-CRE); experiment: organism not typed; format: cell-based; conditions: 252 OXA-producing Enterobacterales
# Description: as §2, §3
# [7] = system: carbapenem-resistant Acinetobacter baumannii (CRAB) clinical isolates; experiment: Broth microdilution MIC, CRAB isolates; format: cell-based; conditions: for CLSI % Res / EUCAST % Res / EUCAST % Sus / Number of isolates inhibited at MIC of >16 µg/mL: CRAB; for CLSI % Res: CLSI BP, for MEM-ANT3310 % at ≥16 µg/mL; for EUCAST % Res / EUCAST % Sus: EUCAST BP; for Number of isolates inhibited at MIC of >16 µg/mL: footnote c
# Description: as §2, §3
# [8] = ANT3310 alone, A. baumannii N 405
# [9] = ANT3310 alone, P. aeruginosa N 502
# [10] = ANT3310 alone, OXA- or KPC-Enterobacterales N 300
# [11] = 2018 Global collection, All A. baumannii, N 500
# [12] = 2019 Global collection, All A. baumannii, N 405
# [13] = 502 P. aeruginosa, 2019 global collection
# [14] = CLSI BP, for MEM-ANT3310 % at ≥16 µg/mL
# Chain of OXA-51 (Q5QT35 entry or part of it): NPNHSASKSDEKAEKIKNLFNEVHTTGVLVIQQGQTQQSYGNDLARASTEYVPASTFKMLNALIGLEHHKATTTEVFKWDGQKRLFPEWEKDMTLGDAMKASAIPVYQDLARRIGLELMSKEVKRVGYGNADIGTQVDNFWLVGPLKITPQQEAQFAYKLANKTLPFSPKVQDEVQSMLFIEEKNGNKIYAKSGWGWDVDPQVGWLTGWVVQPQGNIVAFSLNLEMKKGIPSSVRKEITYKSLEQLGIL
compound,measurement,setting,value
"NCCONC(=O)[C@@H]1CC[C@@H]2CN1C(=O)N2OS(=O)(=O)O [Nac, nacubactam]",IC50,OXA-51,> 10000 nM
same,IC50,OXA-58,> 10000 nM
same,IC50,OXA-23,> 3000 nM
same,IC50,OXA-24/40,> 10000 nM
same,IC50,KPC-2,27.2 nM
same,IC50,OXA-48,> 3000 nM
"CC1=C[C@@H]2CN(C(=O)N2OS(=O)(=O)O)[C@@H]1C(N)=O [Dur, durlobactam]",IC50,OXA-51,4300 nM
same,IC50,OXA-58,11 nM
same,IC50,OXA-23,347 nM
same,IC50,OXA-24/40,208 nM
same,IC50,KPC-2,5.3 nM
same,IC50,OXA-48,3.4 nM
"O=C(NNC(=O)[C@@H]1CC[C@@H]2CN1C(=O)N2OS(=O)(=O)O)[C@@H]1CCCNC1 [Zid, zidebactam]",IC50,OXA-51,> 10000 nM
same,IC50,OXA-58,> 10000 nM
same,IC50,OXA-23,> 3000 nM
same,IC50,OXA-24/40,> 10000 nM
same,IC50,KPC-2,38.9 nM
O=C1N2C[C@@H](CC[C@H]2F)N1OS(=O)(=O)O [ANT3310],MIC90,[1]; [8],>64 µg/mL
same,Number of isolates inhibited at MIC of 4 µg/mL,[1]; [8],1
same,Number of isolates inhibited at MIC of 8 µg/mL,[1]; [8],4
same,Number of isolates inhibited at MIC of 16 µg/mL,[1]; [8],1
same,Number of isolates inhibited at MIC of 32 µg/mL,[1]; [8],11
same,Number of isolates inhibited at MIC of 64 µg/mL,[1]; [8],38
same,Number of isolates inhibited at MIC of >64 µg/mL,[1]; [8],350
same,MIC50,"[1]; Acinetobacter baumannii, ANT3310 alone, A. baumannii N 405, read-out: MIC50",64 µg/mL
same,MIC90,"[1]; Acinetobacter baumannii, ANT3310 alone, A. baumannii N 405, read-out: MIC90",> 64 µg/mL
same,MIC50,[2]; [9],>64 µg/mL
same,MIC90,[2]; [9],>64 µg/mL
same,Number of isolates inhibited at MIC of 16 µg/mL,[2]; [9],2
same,Number of isolates inhibited at MIC of 32 µg/mL,[2]; [9],9
same,Number of isolates inhibited at MIC of 64 µg/mL,[2]; [9],15
same,Number of isolates inhibited at MIC of >64 µg/mL,[2]; [9],476
same,MIC50,"[2]; Pseudomonas aeruginosa, ANT3310 alone, P. aeruginosa N 502, read-out: MIC50",> 64 µg/mL
same,MIC90,"[2]; Pseudomonas aeruginosa, ANT3310 alone, P. aeruginosa N 502, read-out: MIC90",> 64 µg/mL
same,Intrinsic antibacterial activity,"[3]; ANT3310 alone, 1,207 isolates",No clinically significant antibacterial activity
same,Number of isolates with ANT3310 MICs ≤8 µg/mL,"[3]; of the 1,207 isolates tested, ANT3310 alone",6
same,IC50,OXA-51,542 nM
same,IC50,OXA-58,8 nM
same,IC50,OXA-23,32.6 nM
same,IC50,OXA-24/40,602 nM
same,IC50,KPC-2,19.5 nM
same,IC50,OXA-48,179 nM
same,MIC50,[4],> 64 µg/mL
same,MIC90,[4],> 64 µg/mL
same,MIC50,[4]; [10],>64 µg/mL
same,MIC90,[4]; [10],>64 µg/mL
same,Number of isolates inhibited at MIC of 8 µg/mL,[4]; [10],1
same,Number of isolates inhibited at MIC of 32 µg/mL,[4]; [10],8
same,Number of isolates inhibited at MIC of 64 µg/mL,[4]; [10],234
same,Number of isolates inhibited at MIC of >64 µg/mL,[4]; [10],57
colistin,MIC50,[1]; [11],0.25 µg/mL
same,MIC90,[1]; [11],0.5 µg/mL
same,Number of isolates inhibited at MIC of 0.25 µg/mL,[1]; [11],287
same,Number of isolates inhibited at MIC of 0.5 µg/mL,[1]; [11],165
same,Number of isolates inhibited at MIC of 1 µg/mL,[1]; [11],15
same,Number of isolates inhibited at MIC of 4 µg/mL,[1]; [11],3
same,Number of isolates inhibited at MIC of 8 µg/mL,[1]; [11],2
same,Number of isolates inhibited at MIC of 16 µg/mL,[1]; [11],2
same,Number of isolates inhibited at MIC of ≤0.125 µg/mL,[1]; [11],22
same,CLSI % Res,[1]; [11],2.2%
same,EUCAST % Res,[1]; [11],2.2%
same,EUCAST % Sus,[1]; [11],97.8%
same,Number of isolates inhibited at MIC of >16 µg/mL,[1]; [11],4^c
same,MIC50,[1]; [12],0.5 µg/mL
same,MIC90,[1]; [12],1 µg/mL
same,Number of isolates inhibited at MIC of 0.25 µg/mL,[1]; [12],32
same,Number of isolates inhibited at MIC of 0.5 µg/mL,[1]; [12],296
same,Number of isolates inhibited at MIC of 1 µg/mL,[1]; [12],66
same,Number of isolates inhibited at MIC of 2 µg/mL,[1]; [12],5
same,Number of isolates inhibited at MIC of 4 µg/mL,[1]; [12],1
same,Number of isolates inhibited at MIC of 16 µg/mL,[1]; [12],1
same,CLSI % Res,[1]; [12],1.5%
same,EUCAST % Res,[1]; [12],1.5%
same,EUCAST % Sus,[1]; [12],98.5%
same,Number of isolates inhibited at MIC of >16 µg/mL,[1]; [12],4^c
same,% susceptible at EUCAST BP,"[1]; A. baumannii, 2018/2019 collections",98.1%
same,MIC90,"[1]; A. baumannii, one or both of the 2018/2019 collections",1 µg/mL
same,MIC50,[2]; [13],1 µg/mL
same,MIC90,[2]; [13],1 µg/mL
same,Number of isolates inhibited at MIC of 0.25 µg/mL,[2]; [13],4
same,Number of isolates inhibited at MIC of 0.5 µg/mL,[2]; [13],21
same,Number of isolates inhibited at MIC of 1 µg/mL,[2]; [13],452
same,Number of isolates inhibited at MIC of 2 µg/mL,[2]; [13],21
same,Number of isolates inhibited at MIC of 4 µg/mL,[2]; [13],2
same,Number of isolates inhibited at MIC of 16 µg/mL,[2]; [13],1
same,Number of isolates inhibited at MIC of ≤0.125 µg/mL,[2]; [13],1
same,MIC50,[5]; 2018 global collection,0.25 µg/mL
same,MIC90,[5]; 2018 global collection,16 µg/mL
same,CLSI % Res,[5]; [14],26.7%
same,EUCAST % Res,[5]; EUCAST BP,26.7%
same,EUCAST % Sus,[5]; EUCAST BP,73.3%
same,MIC50,[6]; 2018 global collection,0.25 µg/mL
same,MIC90,[6]; 2018 global collection,8 µg/mL
same,CLSI % Res,[6]; [14],23.8%
same,EUCAST % Res,[6]; EUCAST BP,23.8%
same,EUCAST % Sus,[6]; EUCAST BP,76.2%
same,MIC50,[7],0.25 µg/mL and 0.5 µg/mL
same,MIC90,[7],0.5 µg/mL and 1 µg/mL
same,Number of isolates inhibited at MIC of 4 µg/mL,[7],2
same,Number of isolates inhibited at MIC of 8 µg/mL,[7],2
same,Number of isolates inhibited at MIC of 16 µg/mL,[7],2
same,Number of isolates inhibited at MIC of ≤0.125 µg/mL,[7],13
same,CLSI % Res,"[7]; 2018 Global collection, N 363",2.8%
same,EUCAST % Res,"[7]; 2018 Global collection, N 363",2.8%
same,EUCAST % Sus,"[7]; 2018 Global collection, N 363",97.2%
same,Number of isolates inhibited at MIC of >16 µg/mL,"[7]; 2018 Global collection, N 363",4^c
same,Number of isolates inhibited at MIC of 2 µg/mL,"[7]; 2019 Global collection, CRAB (MEM MICs >4 µg/mL), N 340",4
same,CLSI % Res,"[7]; 2019 Global collection, N 340",1.2%
same,EUCAST % Res,"[7]; 2019 Global collection, N 340",1.2%
same,EUCAST % Sus,"[7]; 2019 Global collection, N 340",98.8%
same,Number of isolates inhibited at MIC of >16 µg/mL,"[7]; 2019 Global collection, N 340",4^c
